Experimental data reported in ChEMBL document CHEMBL1201862, “PubChem BioAssay data set” (2004).
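Cells were grown in 96-well plates and exposed to each compound for 48 hours at five concentrations; endpoints were interpolated linearly between bracketing concentrations, or set to the highest concentration if not reached. Here, GI50 denotes the concentration required for 50% inhibition of growth.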 The source made the active and inactive calls. Cut-off read from the data, not from the text of the source: active = GI50 up to about 1.1 µM and inactive = higher.

What was measured:
Assay in all cases: DTP human tumour cell line panel, 48 h
CCRF-CEM = system: CCRF-CEM
OVCAR-8 = system: OVCAR-8
DU-145 = system: DU-145
IGROV-1 = system: IGROV-1
A498 = system: A498
NCI-H226 = system: NCI-H226
786-0 = system: 786-0
HOP-92 = system: HOP-92
HCT-116 = system: HCT-116
BT-549 = system: BT-549
RXF 393 = system: RXF 393
HL-60 = system: HL-60
NCI-H23 = system: NCI-H23
SF-295 = system: SF-295
Hs-578T = system: Hs-578T
SR = system: SR
OVCAR-4 = system: OVCAR-4
SN12C = system: SN12C
MDA-MB-435 = system: MDA-MB-435
SNB-19 = system: SNB-19
A549 = system: A549
OVCAR-3 = system: OVCAR-3
SF-268 = system: SF-268
PC-3 = system: PC-3
OVCAR-5 = system: OVCAR-5
SNB-75 = system: SNB-75
UO-31 = system: UO-31
HT-29 = system: HT-29
Malme-3M = system: Malme-3M
SW-620 = system: SW-620
NCI-H460 = system: NCI-H460
SK-MEL-5 = system: SK-MEL-5
M14 = system: M14
UACC-62 = system: UACC-62
ACHN = system: ACHN
CAKI-1 = system: CAKI-1
TK-10 = system: TK-10
HCT-15 = system: HCT-15
K562 = system: K562
NCI/ADR-RES = system: NCI/ADR-RES
LOX IMVI = system: LOX IMVI
MOLT-4 = system: MOLT-4
MCF7 = system: MCF7
SK-MEL-28 = system: SK-MEL-28
MDA-MB-231 = system: MDA-MB-231
SK-OV-3 = system: SK-OV-3
U-251 = system: U-251
HOP-62 = system: HOP-62
EKVX = system: EKVX
HCC 2998 = system: HCC 2998
T47D = system: T47D
UACC-257 = system: UACC-257
KM12 = system: KM12
COLO 205 = system: COLO 205
RPMI-8226 = system: RPMI-8226
MDA-N = system: MDA-N
NCI-H522 = system: NCI-H522
SK-MEL-2 = system: SK-MEL-2
SF-539 = system: SF-539
LXFL 529 = system: LXFL 529
SNB-78 = system: SNB-78
DMS-114 = system: DMS-114
KM-20L2 = system: KM-20L2
DMS-273 = system: DMS-273
M19-MEL = system: M19-MEL

Measured: GI50

O=C1C(c2c(O)[nH]c3ccc(Br)cc23)=Nc2ccccc21
active: IGROV-1 0.562 µM
5.41 µM: HCT-15
inactive: CCRF-CEM 22.7 µM | OVCAR-8 6.78 µM | DU-145 6.81 µM | A498 3.3 µM | NCI-H226 15.1 µM | 786-0 2.13 µM | HOP-92 16.6 µM | HCT-116 2.32 µM | BT-549 19.5 µM | RXF 393 2.39 µM | HL-60 96.2 µM | NCI-H23 12.4 µM | SF-295 15.5 µM | Hs-578T 12.9 µM | SR 6.73 µM | OVCAR-4 9.04 µM | SN12C 28 µM | MDA-MB-435 6.9 µM | SNB-19 13.2 µM | A549 4.07 µM | OVCAR-3 10.6 µM | SF-268 9.62 µM | PC-3 5 µM | OVCAR-5 11.9 µM | SNB-75 11.2 µM | UO-31 2.74 µM | HT-29 4.28 µM | Malme-3M 4.91 µM | SW-620 12.7 µM | NCI-H460 12.7 µM | SK-MEL-5 4.01 µM | M14 11.3 µM | UACC-62 12.2 µM | ACHN 3.06 µM | CAKI-1 2.65 µM | TK-10 13.4 µM | K562 5.62 µM | NCI/ADR-RES 17.7 µM | LOX IMVI 8.55 µM | MOLT-4 18.2 µM | MCF7 1.76 µM | SK-MEL-28 29 µM | MDA-MB-231 15 µM | SK-OV-3 13 µM | U-251 12.8 µM | HOP-62 12.4 µM | EKVX 2.93 µM | HCC 2998 3.79 µM | T47D 8.63 µM | UACC-257 24.2 µM | KM12 2.92 µM | COLO 205 5.65 µM | RPMI-8226 8.79 µM | MDA-N 14 µM | NCI-H522 14.7 µM | SK-MEL-2 11.9 µM

C[C@H](CCc1nc(C#N)c(N)o1)[C@H]1CC[C@H]2[C@@H]3CCC4C[C@@H](O)CC[C@]4(C)[C@H]3C[C@@H](O)[C@]12C (some centres undefined)
active: CCRF-CEM 0.143 µM | HL-60 0.475 µM | OVCAR-4 1.03 µM
inactive: OVCAR-8 4.56 µM | DU-145 14.5 µM | IGROV-1 6.24 µM | A498 18.7 µM | NCI-H226 8.38 µM | 786-0 10.8 µM | HOP-92 14.4 µM | HCT-116 12.7 µM | SF-539 10.2 µM | BT-549 2.65 µM | RXF 393 9.27 µM | NCI-H23 17.3 µM | SF-295 14.4 µM | Hs-578T 8.55 µM | SR 3.05 µM | SN12C 10.7 µM | MDA-MB-435 15.1 µM | SNB-19 16.4 µM | A549 5.89 µM | OVCAR-3 11.9 µM | SF-268 11.3 µM | PC-3 4.33 µM | OVCAR-5 18.6 µM | SNB-75 10.3 µM | UO-31 4.53 µM | HT-29 13.5 µM | Malme-3M 14.4 µM | SW-620 12.6 µM | NCI-H460 14.6 µM | SK-MEL-5 12.6 µM | M14 15.4 µM | UACC-62 12.1 µM | ACHN 14.9 µM | CAKI-1 14.4 µM | TK-10 14.7 µM | K562 4.46 µM | NCI/ADR-RES 8.49 µM | LOX IMVI 7.71 µM | MOLT-4 4.02 µM | MCF7 14.6 µM | SK-MEL-28 13.1 µM | MDA-MB-231 17.1 µM | SK-OV-3 14.3 µM | U-251 12.5 µM | HOP-62 18.9 µM | EKVX 12.9 µM | HCC 2998 16.6 µM | T47D 14.5 µM | UACC-257 7.73 µM | KM12 10.7 µM | COLO 205 12.7 µM | RPMI-8226 1.73 µM | MDA-N 13.9 µM | NCI-H522 3.65 µM | SK-MEL-2 16.3 µM
14.7 µM: HCT-15

O=c1c2ccccc2c2nc3ccccc3nc2n1C1CCCCC1
> 100 µM: HCT-15
inactive: OVCAR-8 86.3 µM | LXFL 529 > 100 µM | IGROV-1 > 100 µM | NCI-H226 > 100 µM | 786-0 > 100 µM | HCT-116 > 100 µM | SF-539 > 100 µM | RXF 393 > 100 µM | NCI-H23 > 100 µM | SF-295 95.3 µM | SR > 100 µM | OVCAR-4 32.9 µM | SN12C > 100 µM | SNB-19 > 100 µM | A549 > 100 µM | OVCAR-3 > 100 µM | SF-268 > 100 µM | OVCAR-5 > 100 µM | SNB-75 51.9 µM | UO-31 > 100 µM | HT-29 > 100 µM | Malme-3M > 100 µM | SNB-78 > 100 µM | SW-620 > 100 µM | SK-MEL-5 > 100 µM | UACC-62 > 100 µM | ACHN > 100 µM | CAKI-1 > 100 µM | TK-10 > 100 µM | K562 > 100 µM | MOLT-4 > 100 µM | SK-MEL-28 > 100 µM | SK-OV-3 > 100 µM | U-251 > 100 µM | DMS-114 > 100 µM | EKVX > 100 µM | HCC 2998 > 100 µM | UACC-257 > 100 µM | KM12 > 100 µM | COLO 205 > 100 µM | RPMI-8226 > 100 µM | KM-20L2 > 100 µM | DMS-273 > 100 µM | NCI-H522 > 100 µM | SK-MEL-2 > 100 µM | M19-MEL > 100 µM
